Assay results reported in US4537777A, “A52688 Antibiotics and process for their production” (priority 1983, dated 1985).
Like-named read-outs stand apart in the source and are kept apart here.

What was measured:
[1] = test system: Candida albicans; test: standard disc-plate assay; type: cell-based; conditions: read-out: Zone Diameters
[2] = test system: Micrococcus luteus; test: standard disc-plate assay; type: cell-based; conditions: read-out: Zone Diameters
[3] = test system: Staphylococcus aureus; test: standard disc-plate assay; type: cell-based; conditions: read-out: Zone Diameters
[4] = test system: Saccharomyces pastorianus; test: standard disc-plate assay; type: cell-based; conditions: read-out: Zone Diameters
[5] = acute toxicity in mice; conditions: mouse, in vivo, ip, intraperitoneal, formulated in aqueous PVP, read-out: Intraperitoneal LD50
From the text: ^a Compounds formulated in aqueous PVP
^b Route test compound administered

[6] = test system: Trichophyton mentagroprophytes; test: standard disc-plate assay; type: cell-based; conditions: read-out: Zone Diameters
[7] = test system: Bacillus subtilis; test: standard disc-plate assay; type: cell-based; conditions: read-out: Zone Diameters
[8] = test system: Bacillus stereothermophilus; test: standard disc-plate assay; type: cell-based; conditions: read-out: Zone Diameters
[9] = test system: Neurospora crassa; test: standard disc-plate assay; type: cell-based; conditions: read-out: Zone Diameters
[10] = test system: Mycobacterium avium; test: standard disc-plate assay; type: cell-based; conditions: read-out: Zone Diameters
[11] = test system: Adenocarcinoma 755; test: murine-transplanted tumor adenocarcinoma 755 in mice; type: in vivo
Protocol: A52688 factors A, C, D, E, F, G, H, J and K and the specified acyl esters of factors A, C, D, E, G, H, J and K are especially useful as oncolytic agents.
Table X summarizes the results of experiments in which mice bearing the murine-transplanted tumor adenocarcinoma 755 were treated with compounds of this invention. In each test the compound was administered by the intraperitoneal route at specified dose levels. The compound was administered over a ten-day period, either on a daily basis or on days one, five and nine, as indicated.

[12] = test system: Serratia marcescens; test: standard disc-plate assay; type: cell-based; conditions: read-out: Zone Diameters
[13] = test system: Salmonella gallinarium; test: standard disc-plate assay; type: cell-based; conditions: read-out: Zone Diameters
[14] = test system: Pseudomonas solanacearum; test: microbe, parasite or virus in culture; type: cell-based; conditions: Ralstonia solanacearum, read-out: Zone Diameters
[15] = test system: Proteus vulgaris; test: standard disc-plate assay; type: cell-based; conditions: read-out: Zone Diameters
[16] = test system: Pseudomonas aeruginosa; test: standard disc-plate assay; type: cell-based; conditions: read-out: Zone Diameters
[17] = test system: Escherichia coli; test: standard disc-plate assay; type: cell-based
Protocol: In Table IX the standard discplate-assay activity of the A52688 factors is summarized. Activity is measured as the diameter (in mm) of the observed zone of inhibition; the diameter of the disc used in each case was 6.35 mm.

[18] = conc 0.1 mg/ml, disc 6.35 mm, ^b overgrowth: factor B
[19] = conc 0.1 mg/ml, disc 6.35 mm, ^b overgrowth: factors B, C, F
[20] = conc 0.1 mg/ml, disc 6.35 mm, ^b overgrowth: factor F
[21] = conc 0.1 mg/ml, disc 6.35 mm, ^b overgrowth: factors A, C, E, F, G
[22] = conc 0.1 mg/ml, disc 6.35 mm, read-out: Zone Diameters
[23] = 0.25 mg/kg i.p., daily for 10 days
[24] = 0.25 mg/kg i.p., daily for 10 days, of 10 mice tested (9 for factor E)
[25] = 0.50 mg/kg i.p., daily for 10 days
[26] = 0.50 mg/kg i.p., daily for 10 days, of 10 mice tested (8 for factor E)
[27] = 1.00 mg/kg i.p., daily for 10 days
[28] = 1.00 mg/kg i.p., daily for 10 days, of 10 (factor E) or 9 (factor F) mice tested

Molecule `O=CNC=Cc1ccc(O)cc1` [Factor B] has a zone of inhibition at 100 µg/mL ([1]; conc 0.1 mg/ml, disc 6.35 mm) of 11 mm, a zone of inhibition at 100 µg/mL ([2]; conc 0.1 mg/ml, disc 6.35 mm) of 22 mm and a zone of inhibition at 100 µg/mL [3, 18] of 25 mm. The zone of inhibition at 100 µg/mL [4, 19] was 14 mm, the LD50 [5] was greater than 75 mg/kg and the zone of inhibition at 100 µg/mL ([6]; conc 0.1 mg/ml, disc 6.35 mm) was 19 mm. The zone of inhibition at 100 µg/mL ([7]; conc 0.1 mg/ml, disc 6.35 mm) was 21 mm, the zone of inhibition at 100 µg/mL ([8]; conc 0.1 mg/ml, disc 6.35 mm) was 21 mm and the zone of inhibition at 100 µg/mL ([9]; conc 0.1 mg/ml, disc 6.35 mm) was 24 mm.

With `[C-]#[N+]C(=CC1CCC(OC(=O)C=C(C)C)CC1)C(=CC1(OC(C)=O)C=CC(O)CC1)[N+]#[C-]` (centres unmarked) [Factor G] the zone of inhibition at 100 µg/mL [10, 20] was 10 mm, the zone of inhibition at 100 µg/mL ([1]; conc 0.1 mg/ml, disc 6.35 mm) was 35 mm and the zone of inhibition at 100 µg/mL ([2]; conc 0.1 mg/ml, disc 6.35 mm) was 32 mm. The “Percent Tumor Inhibition” value ([11]; 0.50 mg/kg i.p., days 1, 5 and 9) was 10%, the “Toxic Deaths” value ([11]; 0.50 mg/kg i.p., days 1, 5 and 9, of 10 mice tested) was 0 and the “Percent Tumor Inhibition” value ([11]; 0.70 mg/kg i.p., days 1, 5 and 9) was 20%. For the same molecule, the “Toxic Deaths” value ([11]; 0.70 mg/kg i.p., days 1, 5 and 9, of 10 mice tested) was 0, the “Percent Tumor Inhibition” value ([11]; 1.00 mg/kg i.p., days 1, 5 and 9) was 54% and the “Toxic Deaths” value ([11]; 1.00 mg/kg i.p., days 1, 5 and 9, of 10 mice tested) was 1. For the same molecule, the “Percent Tumor Inhibition” value ([11]; 1.40 mg/kg i.p., days 1, 5 and 9) was 72%, the “Toxic Deaths” value ([11]; 1.40 mg/kg i.p., days 1, 5 and 9, of 10 mice tested) was 6 and the “Percent Tumor Inhibition” value ([11]; 2.00 mg/kg i.p., days 1, 5 and 9) was 60%. The “Toxic Deaths” value ([11]; 2.00 mg/kg i.p., days 1, 5 and 9, of 10 mice tested) was 7, the “Percent Tumor Inhibition” value ([11]; 2.80 mg/kg i.p., days 1, 5 and 9) was “toxic” and the “Toxic Deaths” value ([11]; 2.80 mg/kg i.p., days 1, 5 and 9, of 10 mice tested) was 10. The zone of inhibition at 100 µg/mL ([12]; conc 0.1 mg/ml, disc 6.35 mm, ^b overgrowth: factor C) was 17 mm, the zone of inhibition at 100 µg/mL [3, 18] was 36 mm and the zone of inhibition at 100 µg/mL ([13]; conc 0.1 mg/ml, disc 6.35 mm) was 23 mm. The zone of inhibition at 100 µg/mL [14] was 31 mm, the zone of inhibition at 100 µg/mL [4, 19] was 24 mm and the LD50 [5] was 7.94 mg/kg. For the same molecule, the zone of inhibition at 100 µg/mL ([6]; conc 0.1 mg/ml, disc 6.35 mm) was 44 mm, the zone of inhibition at 100 µg/mL [15, 21] was 27 mm and the zone of inhibition at 100 µg/mL ([7]; conc 0.1 mg/ml, disc 6.35 mm) was 30 mm. It also gave a zone of inhibition at 100 µg/mL ([8]; conc 0.1 mg/ml, disc 6.35 mm) of 33 mm, a zone of inhibition at 100 µg/mL ([16]; conc 0.1 mg/ml, disc 6.35 mm) of 23 mm and a zone of inhibition at 100 µg/mL ([9]; conc 0.1 mg/ml, disc 6.35 mm) of 41 mm. The zone of inhibition at 100 µg/mL [17, 22] was 20 mm and the zone of inhibition at 100 µg/mL ([17]; in minimal medium, conc 0.1 mg/ml, disc 6.35 mm, read-out: Zone Diameters) was 18 mm.

`[C-]#[N+]C(=CC1=C[C@@H](O)[C@@H](O)CC1)C(=CC1CCC(OC(=O)C=C(C)C)CC1)[N+]#[C-]` (relative stereo) [Factor E] gave a zone of inhibition at 100 µg/mL [10] of 15 mm, a zone of inhibition at 100 µg/mL [1] of 29 mm and a zone of inhibition at 100 µg/mL [2] of 24 mm. The “Percent Tumor Inhibition” value [11, 23] was 22%, the “Toxic Deaths” value [11, 24] was 0 and the “Percent Tumor Inhibition” value [11, 25] was 74%. The “Toxic Deaths” value [11, 26] was 3, the “Percent Tumor Inhibition” value [11, 27] was “toxic” and the “Toxic Deaths” value [11, 28] was 10. It also gave a zone of inhibition at 100 µg/mL [12] of 17 mm, a zone of inhibition at 100 µg/mL [3] of 21 mm and a zone of inhibition at 100 µg/mL [13] of 19 mm. The zone of inhibition at 100 µg/mL ([14]; conc 0.1 mg/ml) was 24 mm, the zone of inhibition at 100 µg/mL [4] was 20 mm and the LD50 [5] was 3.54 mg/kg. For the same molecule, the zone of inhibition at 100 µg/mL [6] was 43 mm, the zone of inhibition at 100 µg/mL [15] was 21 mm and the zone of inhibition at 100 µg/mL [7] was 29 mm. For the same molecule, the zone of inhibition at 100 µg/mL [8] was 30 mm, the zone of inhibition at 100 µg/mL [16] was 17 mm and the zone of inhibition at 100 µg/mL [9] was 34 mm. It also gave a zone of inhibition at 100 µg/mL ([17]; read-out: Zone Diameters, conc 0.1 mg/ml, disc 6.35 mm) of 18 mm and a zone of inhibition at 100 µg/mL ([17]; read-out: Zone Diameters, in minimal medium, conc 0.1 mg/ml, disc 6.35 mm) of 16 mm.

In the case of `[C-]#[N+]C(=CC1CCC(OC(=O)C=C(C)C)CC1)C(=CC1(OC(C)=O)C=CC(=O)CC1)[N+]#[C-]` (centres unmarked) [Factor F], the zone of inhibition at 100 µg/mL [10, 20] is reported as 17 mm, the zone of inhibition at 100 µg/mL ([1]; conc 0.1 mg/ml, disc 6.35 mm) is reported as 21 mm and the zone of inhibition at 100 µg/mL ([2]; conc 0.1 mg/ml, disc 6.35 mm) is reported as 30 mm. The “Percent Tumor Inhibition” value [11, 23] was 51%, the “Toxic Deaths” value [11, 24] was 0 and the “Percent Tumor Inhibition” value [11, 25] was 69%. For the same molecule, the “Toxic Deaths” value [11, 26] was 0, the “Percent Tumor Inhibition” value [11, 27] was 91% and the “Toxic Deaths” value [11, 28] was 2. The “Percent Tumor Inhibition” value ([11]; 2.00 mg/kg i.p., daily for 10 days) was “toxic”, the “Toxic Deaths” value ([11]; 2.00 mg/kg i.p., daily for 10 days, of 10 mice tested) was 10 and the zone of inhibition at 100 µg/mL [3, 18] was 26 mm. For the same molecule, the zone of inhibition at 100 µg/mL ([13]; conc 0.1 mg/ml, disc 6.35 mm) was 11 mm, the zone of inhibition at 100 µg/mL [14] was 10 mm and the zone of inhibition at 100 µg/mL [4, 19] was 22 mm. The LD50 [5] was 5 mg/kg, the zone of inhibition at 100 µg/mL ([6]; conc 0.1 mg/ml, disc 6.35 mm) was 20 mm and the zone of inhibition at 100 µg/mL [15, 21] was 20 mm. It also gave a zone of inhibition at 100 µg/mL ([7]; conc 0.1 mg/ml, disc 6.35 mm) of 27 mm, a zone of inhibition at 100 µg/mL ([8]; conc 0.1 mg/ml, disc 6.35 mm) of 27 mm and a zone of inhibition at 100 µg/mL ([9]; conc 0.1 mg/ml, disc 6.35 mm) of 33 mm. The zone of inhibition at 100 µg/mL [17, 22] was 17 mm.
